Data published in article PMC4741889, “Ligand-based chemoinformatic discovery of a novel small molecule inhibitor targeting CDC25 dual specificity phosphatases and displaying in vitro efficacy against melanoma cells” (Oncotarget, 2015).

Assays:
Format in all cases: cell-based, human
[1] = tested on: Bcl-2 and Bax protein levels; assay: Western blotting of Bcl-2 and Bax protein levels in SAN cells; details: 100 μM, 8 or 16 h
Protocol: Mitochondria represent the primary source of ROS, as well the target of ROS action, and therefore, compound 7 could affect their functionality in melanoma cells. […] Proteins belonging to the B-cell lymphoma-2 (Bcl-2) family are involved in the modulation of the mitochondrial functionality. Therefore, we have evaluated the levels of the anti-apoptotic protein Bcl-2, as well as that of the pro-apoptotic Bcl-2-associated X protein (Bax), after incubation with 7 (Figure 10B). […] To further investigate the occurrence of a mitochondrial-mediated apoptosis induced by 7, the caspase-9 activity was assayed. […]
A2058 cells were seeded into 6-well-plates (3 × 10^5 cells/plate) for 24 h at 37°C and then treated at different times with 100 μM compound 7 or 0.5% DMSO. […] The protein concentration was determined by the method of Bradford, using bovine serum albumin (BSA) as standard. […] Membranes were then analysed by an enhanced chemiluminescence reaction, using Super Signal West Pico kit (Pierce) according to manufacturer's instruction; signals were visualized by autoradiography.
Supplementary Figure S6: Effect of compound 7 on some apoptotic mitochondrial markers in SAN cells. […] Total protein extracts from SAN cells, incubated with 0.5% DMSO or 100 μM compound 7 for 8 or 16 h,were analyzed by Western blotting. […]

caspase-9 activity = assay: Caspase-9 enzymatic activity in A2058 cells; details: A2058, 100 μM, 24 h
Protocol: (§1) Mitochondria represent the primary source of ROS, as well the target of ROS action, and therefore, compound 7 could affect their functionality in melanoma cells. […] Proteins belonging to the B-cell lymphoma-2 (Bcl-2) family are involved in the modulation of the mitochondrial functionality. Therefore, we have evaluated the levels of the anti-apoptotic protein Bcl-2, as well as that of the pro-apoptotic Bcl-2-associated X protein (Bax), after incubation with 7 (Figure 10B). […] To further investigate the occurrence of a mitochondrial-mediated apoptosis induced by 7, the caspase-9 activity was assayed. […] The effect of compound 7 was investigated also in SAN cells and the overall results were similar to those observed in A2058 (Supplementary Figure S6).
To estimate caspase-3 and caspase-9 activity during the treatment with compound 7, the respective enzymatic activities were measured by using caspase-3 and -9 fluorimetric assay kits, according to the manufacturer's protocol, essentially as previously described. Briefly, cells were seeded into 75 cm^2 plates (2 × 10^6 cells/plate) for 24 h at 37°C and then treated with 100 μM 7 or 0.5% DMSO. […] Cell lysates were incubated with 50 μM DEVD-AFC or LEHD-AFC substrates at 37°C for 2 h, to detect caspase-3 or caspase-9 activity, respectively, using a Cary Eclipse fluorescence spectrophotometer (Varian). […]

A2058 cells = assay: Mitochondrial membrane potential (R123), A2058 cells; details: A2058, 100 μM, 24 h up to 72 h
Protocol: as §1
Mitochondrial membrane potential was evaluated by measuring the incorporation of the fluorescent probe R123, essentially as previously described. Briefly, cells were seeded into 6-well-plates (3 × 10^5 cells/well) for 24 h at 37°C, and then incubated at 37°C for 1 h in the presence of 5 μM R123, washed twice with PBS, and placed in medium containing 100 μM compound 7 or 0.5% DMSO. […] The fluorescence of cell-associated R123 was detected in the above-mentioned fluorescence spectrophotometer, using excitation and emission wavelengths of 490 and 520 nm, respectively; both excitation and emission slits were set at 10 nm.

p53 protein levels = assay: Western blotting of p53 protein levels in SAN cells; details: 100 μM, 16 h (not shown)
caspase-3 activity = assay: Caspase-3 enzymatic activity in A2058 cells; details: A2058, 100 μM
Text: PI incorporation followed by flow cytometric analysis was used to detect the effect of 7 on the number of nuclei with a sub-diploid content, a typical hallmark of apoptosis. A time-dependent increase of apoptosis was evident in both A2058 and SAN cells and in particular, the effect of 7 on cell death program was already evident after 24-h treatment (Figure 7). […] To further investigate on the capacity of 7 to induce apoptosis, the enzymatic activity of caspase-3, the final effector of apoptotic program, was monitored.
To estimate caspase-3 and caspase-9 activity during the treatment with compound 7, the respective enzymatic activities were measured by using caspase-3 and -9 fluorimetric assay kits, according to the manufacturer's protocol, essentially as previously described. Briefly, cells were seeded into 75 cm^2 plates (2 × 10^6 cells/plate) for 24 h at 37°C and then treated with 100 μM 7 or 0.5% DMSO. At the end of each incubation, cells were collected, washed with PBS, and finally lysed at 4°C in the cell lysis buffer. Cell lysates were incubated with 50 μM DEVD-AFC or LEHD-AFC substrates at 37°C for 2 h, to detect caspase-3 or caspase-9 activity, respectively, using a Cary Eclipse fluorescence spectrophotometer (Varian). Excitation and emission wavelengths were set at 400 nm and 505 nm, respectively; both excitation and emission slits were set at 10 nm.

CDC25B protein levels = assay: Western blotting of CDC25B protein levels in A2058 cells; details: A2058, 100 μM, up to 16 h
Protocol: To better investigate the effect of this inhibitor at the molecular level, we evaluated if the treatment of A2058 cells with 7 affected also the protein levels of the three CDC25 forms. […] On the other hand, the protein levels of CDC25B were unaffected by treatment of A2058 cells with 7 up to 16 h.
A2058 cells were seeded into 6-well-plates (3 × 10^5 cells/plate) for 24 h at 37°C and then treated at different times with 100 μM compound 7 or 0.5% DMSO. After treatment, cells were harvested, washed with PBS and then lysed in ice-cold modified radio immunoprecipitation assay (RIPA) buffer (50 mM Tris-HCl, pH 7.4, 150 mM NaCl, 1% Nonidet P-40, 0.25% sodium deoxycholate, 1 mM Na3VO4 and 1 mM NaF), supplemented with protease inhibitors and incubated for 30 min on ice. The supernatant obtained after centrifugation at 12,000 rpm for 30 min at 4°C constituted the total protein extract. The protein concentration was determined by the method of Bradford, using bovine serum albumin (BSA) as standard. Equal amounts of total protein extracts were used for Western blot analysis. […] Membranes were then analysed by an enhanced chemiluminescence reaction, using Super Signal West Pico kit (Pierce) according to manufacturer's instruction; signals were visualized by autoradiography.

Structure (SMILES): O=C(O)C1CCCCC1c1c2ccc(=O)cc-2oc2cc(O)ccc12 (stereo not shown) [Compound 7, 2-(6-hydroxy-3-oxo-3H-xanthen-9-yl)cyclohexanecarboxylic acid]
- Bcl-2/Bax ratio [1]: significantly decreased
- Bcl-2 and Bax protein levels [1]: both levels of Bcl-2 and Bax were reduced
- caspase-9 activity (caspase-9 activity): clear increase of caspase-9 activity
- mitochondrial membrane potential (R123 fluorescence) (A2058 cells): reduction of the mitochondrial membrane potential
- p53 protein level (p53 protein levels): higher level of this protein
- caspase-3 enzymatic activity (caspase-3 activity): significant increase of the enzymatic activity of caspase-3
- CDC25B protein levels (CDC25B protein levels): unaffected
